In patent publication US8735322B2, “Herbicides” (Syngenta Limited, priority 2008, dated 2014) one finds pest or weed control data, which are given here for 8 molecules.

Common to all, as to assay type: in vivo
Assay [1] deals with Alopecurus myosuroides (ALOMY). Description: Example A pre-emergence herbicidal activity, glasshouse pot test. The following applies: 480 h, rate 500 g/ha, evaluated 20 days later, 100=total damage to plant, 0=no damage to plant. Here is the method: (§1) Seeds of a variety of test species were sown in standard soil in pots. After cultivation for one day (pre-emergence) or after 10 days cultivation (post-emergence) under controlled conditions in a glasshouse, the plants were sprayed with an aqueous spray solution derived from the formulation of the technical active ingredient in 0.6 ml acetone and 45 ml formulation solution containing 10.6% Emulsogen EL (Registry number 61791-12-6), 42.2% N-methylpyrrolidone, 42.2% dipropylene glycol monomethyl ether (Registry number 34590-94-8) and 0.2% X-77 (Registry number 11097-66-8). The test plants were then grown in a greenhouse under optimum conditions until, 15 days later for post-emergence and 20 days for pre-emergence, the test was evaluated (100=total damage to plant; 0=no damage to plant). Alopecurus myosuroides (ALOMY), Avena fatua (AVEFA), Lolium perenne (LOLPE), Setaria faberi (SETFA), Digitaria sanguinalis (DIGSA), Echinochloa crus-galli (ECHCG) Pre-Emergence Activity

For assay [2], the system named is Avena fatua (AVEFA). The assay is described as above. As to conditions: 480 h, rate 500 g/ha, evaluated 20 days later, 100=total damage to plant, 0=no damage to plant. On the procedure:
as §1

In assay [3] the test system is Digitaria sanguinalis (DIGSA). Described as above. The following applies: 480 h, rate 500 g/ha, evaluated 20 days later, 100=total damage to plant, 0=no damage to plant. Here is the method: as §1
For assay [4], the system named is Echinochloa crus-galli (ECHCG). The assay is described as above. The following applies: 480 h, rate 500 g/ha, evaluated 20 days later, 100=total damage to plant, 0=no damage to plant. On the procedure:
as §1

The subject of assay [5] is Lolium perenne (LOLPE). Described as above. The following applies: 480 h, rate 500 g/ha, evaluated 20 days later, 100=total damage to plant, 0=no damage to plant. Here is the method: as §1
Assay [6] deals with Setaria faberi (SETFA). The description is as above. The following applies: 480 h, rate 500 g/ha, evaluated 20 days later, 100=total damage to plant, 0=no damage to plant. Here is the method: as §1
Assay [7] deals with Alopecurus myosuroides (ALOMY). Description: Example A post-emergence herbicidal activity, glasshouse pot test. The following applies: 360 h, evaluated 15 days after spraying, read-out: herbicidal damage ALOMY (100=total damage to plant; 0=no damage to plant); for pest or weed control at 500 g/ha: rate 500 g/ha; for pest or weed control at 125 g/ha: rate 125 g/ha. Here is the method: as §1, with “Post Emergency” for “Pre-Emergence”

For assay [8], the system named is Avena fatua (AVEFA). Described as above. The following applies: 360 h, evaluated 15 days after spraying, read-out: herbicidal damage AVEFA (100=total damage to plant; 0=no damage to plant); for pest or weed control at 500 g/ha: rate 500 g/ha; for pest or weed control at 125 g/ha: rate 125 g/ha. On the procedure:
as §1, with “Post Emergency” for “Pre-Emergence”

Assay [9] relates to Digitaria sanguinalis (DIGSA). The description is as above. As to conditions: 360 h, evaluated 15 days after spraying, read-out: herbicidal damage DIGSA (100=total damage to plant; 0=no damage to plant); for pest or weed control at 500 g/ha: rate 500 g/ha; for pest or weed control at 125 g/ha: rate 125 g/ha. On the procedure: as §1, with “Post Emergency” for “Pre-Emergence”
The test system of assay [10] is Echinochloa crus-galli (ECHCG). The description is as above. As to conditions: 360 h, evaluated 15 days after spraying, read-out: herbicidal damage ECHCG (100=total damage to plant; 0=no damage to plant); for pest or weed control at 500 g/ha: rate 500 g/ha; for pest or weed control at 125 g/ha: rate 125 g/ha. On the procedure:
as §1, with “Post Emergency” for “Pre-Emergence”

Assay [11] deals with Lolium perenne (LOLPE). Described as above. The following applies: 360 h, evaluated 15 days after spraying, read-out: herbicidal damage LOLPE (100=total damage to plant; 0=no damage to plant); for pest or weed control at 500 g/ha: rate 500 g/ha; for pest or weed control at 125 g/ha: rate 125 g/ha. On the procedure: as §1, with “Post Emergency” for “Pre-Emergence”
For assay [12], the system named is Setaria faberi (SETFA). Described as above. The following applies: 360 h, evaluated 15 days after spraying, read-out: herbicidal damage SETFA (100=total damage to plant; 0=no damage to plant); for pest or weed control at 500 g/ha: rate 500 g/ha; for pest or weed control at 125 g/ha: rate 125 g/ha. Here is the method:
as §1, with “Post Emergency” for “Pre-Emergence”

The structures appear in SMILES notation.

Turning to `Cc1cc(C)c(C2=C(O)CC(C(C)C3CCOCC3)CC2=O)c(C)c1` (stereo not drawn) [Compound A-10], the pest or weed control at 500 g/ha in assay [1] was 50%; in the assay with Avena fatua (AVEFA) [2], 50%; in assay [3] it was 60%; in assay [4] it was 80%; in the assay with Lolium perenne (LOLPE) [5], 70%; in the assay on Setaria faberi (SETFA) [6], 60%. The pest or weed control at 500 g/ha in assay [7] was 80%; in the assay on Avena fatua (AVEFA) [8], 80%; in assay [9], 70%; in assay [10], 50%; with Lolium perenne (LOLPE) [11], 60%; with Setaria faberi (SETFA) [12] it was 50%.

As for `CCc1ccc(-c2ccc(Cl)cc2)cc1C1=C(O)CC(C(C)C2CCOCC2)CC1=O` (stereo not drawn) [Compound A-13], the pest or weed control at 500 g/ha was 30% in assay [1]; 20% with Avena fatua (AVEFA) [2]; 30% in [3]; 30% in assay [4]; 10% with Lolium perenne (LOLPE) [5]; 30% in the assay on Setaria faberi (SETFA) [6]. The pest or weed control at 500 g/ha is 80% in assay [7]; 30% in the assay on Avena fatua (AVEFA) [8]; 90% in [9]; 100% in assay [10]; 70% in the assay with Lolium perenne (LOLPE) [11]; 50% in the assay on Setaria faberi (SETFA) [12].

For the molecule `CCc1cc(C)cc(CC)c1C1=C(O)CC(CC2CCSCC2)CC1=O` (stereo not drawn) [Compound A-14], the pest or weed control at 500 g/ha came out at 80% in assay [1]; 70% in the assay with Avena fatua (AVEFA) [2]; 100% in assay [3]; 80% in assay [4]; 90% with Lolium perenne (LOLPE) [5]; 100% in the assay with Setaria faberi (SETFA) [6]. For the same molecule, the pest or weed control at 500 g/ha came out at 100% in assay [7]; 100% with Avena fatua (AVEFA) [8]; 70% in assay [9]; 100% in assay [10]; 90% with Lolium perenne (LOLPE) [11]; 100% in the assay with Setaria faberi (SETFA) [12].

For `Cc1ccc(-c2ccc(Cl)cc2)cc1C1=C(O)CC(C(C)C2CCOCC2)CC1=O` (stereo not drawn) [Compound A-15], the pest or weed control at 500 g/ha stood at 10% in assay [1]; 40% in the assay with Avena fatua (AVEFA) [2]; 20% in assay [3]; 10% in [4]; 0% in the assay on Lolium perenne (LOLPE) [5]; 20% in the assay on Setaria faberi (SETFA) [6]. The pest or weed control at 500 g/ha in assay [7] worked out at 60%; in the assay with Avena fatua (AVEFA) [8] it was 30%; in assay [9], 70%; in assay [10], 50%; in the assay on Lolium perenne (LOLPE) [11], 30%; in the assay with Setaria faberi (SETFA) [12], 30%.

In the case of `CCc1cc(C)cc(CC)c1C1=C(O)CC(CC2CCS(=O)(=O)CC2)CC1=O` (stereo not drawn) [Compound A-17], the pest or weed control at 500 g/ha (in assay [1]; in the assay with Avena fatua (AVEFA) [2]; in assay [3]; in assay [4]; in the assay on Lolium perenne (LOLPE) [5]; with Setaria faberi (SETFA) [6]) was 100% throughout. Moreover, the pest or weed control at 125 g/ha came out at 90% in assay [7]; 100% in the assay with Avena fatua (AVEFA) [8]; 80% in [9]; 100% in assay [10]; 90% in the assay with Lolium perenne (LOLPE) [11]; 50% in the assay with Setaria faberi (SETFA) [12].

For the molecule `CCc1cc(C)cc(CC)c1C1=C(O)CC(C(C)C2CCOC2)CC1=O` (stereo not drawn) [Compound A-18], the pest or weed control at 500 g/ha in assay [1] is 90%; with Avena fatua (AVEFA) [2] it was 100%; in assay [3] it was 100%; in assay [4] it was 100%; with Lolium perenne (LOLPE) [5], 100%; with Setaria faberi (SETFA) [6] it was 100%. Moreover, the pest or weed control at 125 g/ha in assay [7] amounted to 100%; in the assay on Avena fatua (AVEFA) [8], 90%; in [9], 80%; in assay [10] it was 100%; in the assay with Lolium perenne (LOLPE) [11], 100%; in the assay with Setaria faberi (SETFA) [12] it was 50%.

With `CCc1cc(CC)c(C2=C(O)CC(CC3CCOCC3)CC2=O)c(CC)c1` (stereo not drawn) [Compound A-19], the pest or weed control at 500 g/ha in [1] was found to be 100%; in the assay on Avena fatua (AVEFA) [2] it was 60%; in [3], 100%; in [4], 100%; in the assay on Lolium perenne (LOLPE) [5] it was 100%; in the assay on Setaria faberi (SETFA) [6], 100%. In addition, the pest or weed control at 125 g/ha in assay [7] was found to be 70%; in the assay with Avena fatua (AVEFA) [8], 20%; in assay [9], 60%; in assay [10] it was 70%; in the assay with Lolium perenne (LOLPE) [11], 70%; in the assay with Setaria faberi (SETFA) [12] it was 60%.

Turning to `CCc1ccc(-c2ccc(Cl)cc2)cc1C1=C(O)CC(CC2CCOCC2)CC1=O` (stereo not drawn) [Compound A-20], the pest or weed control at 500 g/ha was determined as 50% in [1]; 10% in the assay on Avena fatua (AVEFA) [2]; 40% in assay [3]; 100% in [4]; 40% in the assay on Lolium perenne (LOLPE) [5]; 70% in the assay on Setaria faberi (SETFA) [6]. The pest or weed control at 125 g/ha came out at 40% in assay [7]; 60% with Avena fatua (AVEFA) [8]; 100% in assay [9]; 100% in assay [10]; 40% in the assay with Lolium perenne (LOLPE) [11]; 80% in the assay on Setaria faberi (SETFA) [12].
